# According to PubChem BioAssay AID252 (DTP/NCI, 2004):
# Values joined by “and” are separate entries in the source; they are usually repeats but may differ in a detail not shown here. Equal values may be shown once. Toxic doses and inconclusive results are not listed.
# Tested on: BDF1 mice, intracerebral L1210 leukemia, survival T/C
# Test: NCI In Vivo Anticancer Drug Screen. Data for tumor model L1210 Leukemia (intracerebral) in B6D2F1 (BDF1) mice
# Conditions: higher = longer survival
# In short: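 Survival measured in treated and vehicle-control tumour-bearing mice; value = T/C.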
compound,measurement,setting,value
CC(CN1CC(=O)NC(=O)C1)N1CC(=O)NC(=O)C1 (stereo not drawn),T/C,"endpoint: mean survival time, dose: 1.56 mg/kg/injection, schedule: Q03HX024 (ip), vehicle: steriod suspending solution",108 % of control and 118 % of control
same,T/C,"endpoint: mean survival time, dose: 3.12 mg/kg/injection, schedule: Q03HX024 (ip), vehicle: steriod suspending solution",162 % of control
same,T/C,"endpoint: mean survival time, dose: 12.5 mg/kg/injection, schedule: Q01DX009 (ip), vehicle: steriod suspending solution",124 % of control
same,T/C,"endpoint: mean survival time, dose: 25.0 mg/kg/injection, schedule: Q03HX024 (ip), vehicle: steriod suspending solution",180 % of control
same,T/C,"endpoint: mean survival time, dose: 50.0 mg/kg/injection, schedule: Q04DX003 (ip), vehicle: steriod suspending solution",122 % of control
same,T/C,"endpoint: mean survival time, dose: 100.0 mg/kg/injection, schedule: Q01DX009 (ip), vehicle: steriod suspending solution",97 % of control
same,T/C,"endpoint: mean survival time, dose: 108.0 mg/kg/injection, schedule: Q04DX003 (ip), vehicle: other",104 % of control and 122 % of control
same,T/C,"endpoint: mean survival time, dose: 108.0 mg/kg/injection, schedule: Q04DX003 (ip), vehicle: steriod suspending solution",108 % of control
same,T/C,"endpoint: mean survival time, dose: 180.0 mg/kg/injection, schedule: Q04DX003 (ip), vehicle: other",104 % of control and 118 % of control
same,T/C,"endpoint: mean survival time, dose: 180.0 mg/kg/injection, schedule: Q04DX003 (ip), vehicle: steriod suspending solution",108 % of control and 123 % of control
same,T/C,"endpoint: mean survival time, dose: 200.0 mg/kg/injection, schedule: Q01DX001 (ip), vehicle: steriod suspending solution",111 % of control
same,T/C,"endpoint: mean survival time, dose: 400.0 mg/kg/injection, schedule: Q01DX001 (ip), vehicle: steriod suspending solution",110 % of control
same,T/C,"endpoint: mean survival time, dose: 500.0 mg/kg/injection, schedule: Q04DX003 (ip), vehicle: other",107 % of control and 117 % of control
same,T/C,"endpoint: mean survival time, dose: 500.0 mg/kg/injection, schedule: Q04DX003 (ip), vehicle: steriod suspending solution",111 % of control and 122 % of control
same,T/C,"endpoint: mean survival time, dose: 800.0 mg/kg/injection, schedule: Q04DX003 (ip), vehicle: steriod suspending solution",115 % of control and 86 % of control (2×)
same,T/C,"endpoint: mean survival time, dose: 833.0 mg/kg/injection, schedule: Q04DX003 (ip), vehicle: Klucel (hydroxypropylcellulose) (HPC)",103 % of control
same,T/C,"endpoint: median survival time, dose: 16.0 mg/kg/injection, schedule: Q01DX009 (ip), vehicle: Klucel (hydroxypropylcellulose) (HPC)",116 % of control
same,T/C,"endpoint: median survival time, dose: 64.0 mg/kg/injection, schedule: Q01DX009 (ip), vehicle: Klucel (hydroxypropylcellulose) (HPC)",114 % of control
same,T/C,"endpoint: median survival time, dose: 108.0 mg/kg/injection, schedule: Q04DX003 (ip), vehicle: Klucel (hydroxypropylcellulose) (HPC)",118 % of control
same,T/C,"endpoint: median survival time, dose: 128.0 mg/kg/injection, schedule: Q01DX009 (ip), vehicle: Klucel (hydroxypropylcellulose) (HPC)",109 % of control and 123 % of control and 95 % of control
CN(C)CC(=O)c1ccc(O)c(O)c1,T/C,"endpoint: median survival time, dose: 100.0 mg/kg/injection, schedule: Q01DX005 (ip), vehicle: saline",101 % of control
same,T/C,"endpoint: median survival time, dose: 200.0 mg/kg/injection, schedule: Q01DX005 (ip), vehicle: saline",101 % of control
same,T/C,"endpoint: median survival time, dose: 400.0 mg/kg/injection, schedule: Q01DX005 (ip), vehicle: saline",98 % of control
same,T/C,"endpoint: median survival time, dose: 800.0 mg/kg/injection, schedule: Q01DX005 (ip), vehicle: saline",113 % of control
CC(=O)Nc1ccc2c(Nc3ccc(NS(C)(=O)=O)cc3)c3ccccc3nc2c1,T/C,"endpoint: mean survival time, dose: 1.5 mg/kg/injection, schedule: Q01DX009 (ip), vehicle: saline",89 % of control
same,T/C,"endpoint: mean survival time, dose: 1.5 mg/kg/injection, schedule: Q01DX009 (sc), vehicle: saline",98 % of control
same,T/C,"endpoint: mean survival time, dose: 3.0 mg/kg/injection, schedule: Q01DX009 (ip), vehicle: saline",98 % of control
same,T/C,"endpoint: mean survival time, dose: 3.0 mg/kg/injection, schedule: Q01DX009 (sc), vehicle: saline",105 % of control
same,T/C,"endpoint: mean survival time, dose: 6.25 mg/kg/injection, schedule: Q01DX009 (ip), vehicle: saline",86 % of control
same,T/C,"endpoint: mean survival time, dose: 6.25 mg/kg/injection, schedule: Q01DX009 (sc), vehicle: saline",109 % of control
same,T/C,"endpoint: mean survival time, dose: 12.5 mg/kg/injection, schedule: Q01DX009 (sc), vehicle: saline",98 % of control
O=c1[nH]c(=O)n(C2CC(O)C(CO)O2)cc1F (stereo not drawn),T/C,"endpoint: mean survival time, dose: 86.0 mg/kg/injection, schedule: Q01DX015 (ip), vehicle: saline",160 % of control
same,T/C,"endpoint: mean survival time, dose: 239.0 mg/kg/injection, schedule: Q01DX001 (ip), vehicle: saline",109 % of control
same,T/C,"endpoint: mean survival time, dose: 364.0 mg/kg/injection, schedule: Q01DX001 (ip), vehicle: saline",104 % of control
same,T/C,"endpoint: mean survival time, dose: 543.0 mg/kg/injection, schedule: Q01DX001 (ip), vehicle: saline",117 % of control
CN(N=O)C(=O)C(=O)N(C)N=O,T/C,"endpoint: mean survival time, dose: 15.0 mg/kg/injection, schedule: Q01DX Z (ip), vehicle: saline",98 % of control
same,T/C,"endpoint: mean survival time, dose: 30.0 mg/kg/injection, schedule: Q01DX Z (ip), vehicle: saline",97 % of control
same,T/C,"endpoint: mean survival time, dose: 60.0 mg/kg/injection, schedule: Q01DX Z (ip), vehicle: saline",98 % of control
same,T/C,"endpoint: mean survival time, dose: 120.0 mg/kg/injection, schedule: Q01DX Z (ip), vehicle: saline",98 % of control
O=C1N[C@@H]([C@H]2CC[C@H](Cl)CN2)C(=O)N[C@H]1[C@H]1CC[C@H](Cl)CN1,T/C,"endpoint: mean survival time, dose: 0.5 mg/kg/injection, schedule: Q01DX009 (ip), vehicle: saline",110 % of control
same,T/C,"endpoint: mean survival time, dose: 1.0 mg/kg/injection, schedule: Q01DX001 (ip), vehicle: saline",102 % of control
same,T/C,"endpoint: mean survival time, dose: 1.0 mg/kg/injection, schedule: Q01DX009 (ip), vehicle: saline",118 % of control
same,T/C,"endpoint: mean survival time, dose: 2.0 mg/kg/injection, schedule: Q01DX001 (ip), vehicle: saline",103 % of control and 100 % of control
same,T/C,"endpoint: mean survival time, dose: 4.0 mg/kg/injection, schedule: Q01DX001 (ip), vehicle: saline",103 % of control and 119 % of control
same,T/C,"endpoint: mean survival time, dose: 8.0 mg/kg/injection, schedule: Q01DX001 (ip), vehicle: saline",105 % of control and 123 % of control
O=c1[nH]cc(N(CCCl)CCCl)c(=O)[nH]1,T/C,"endpoint: mean survival time, dose: 0.75 mg/kg/injection, schedule: Q01DX015 (ip), vehicle: carboxymethylcellulose (CMC)",114 % of control
same,T/C,"endpoint: mean survival time, dose: 1.1 mg/kg/injection, schedule: Q01DX015 (ip), vehicle: carboxymethylcellulose (CMC)",123 % of control
same,T/C,"endpoint: mean survival time, dose: 1.5 mg/kg/injection, schedule: Q01DX001 (ip), vehicle: carboxymethylcellulose (CMC)",106 % of control
same,T/C,"endpoint: mean survival time, dose: 2.4 mg/kg/injection, schedule: Q01DX001 (ip), vehicle: carboxymethylcellulose (CMC)",111 % of control
same,T/C,"endpoint: mean survival time, dose: 3.6 mg/kg/injection, schedule: Q01DX001 (ip), vehicle: carboxymethylcellulose (CMC)",102 % of control
N=c1ccn2c(n1)OC1C(O)C(CO)OC12 (stereo not drawn),T/C,"endpoint: mean survival time, dose: 50.0 mg/kg/injection, schedule: Q01DX009 (oral), vehicle: saline",220 % of control
same,T/C,"endpoint: mean survival time, dose: 50.0 mg/kg/injection, schedule: Q08DX009 (ip), vehicle: water",175 % of control
same,T/C,"endpoint: mean survival time, dose: 100.0 mg/kg/injection, schedule: Q01DX009 (oral), vehicle: saline",228 % of control
same,T/C,"endpoint: mean survival time, dose: 100.0 mg/kg/injection, schedule: Q01DX009 (oral), vehicle: water",186 % of control
same,T/C,"endpoint: mean survival time, dose: 100.0 mg/kg/injection, schedule: Q08DX009 (ip), vehicle: water",196 % of control
same,T/C,"endpoint: mean survival time, dose: 200.0 mg/kg/injection, schedule: Q01DX009 (oral), vehicle: saline",255 % of control
same,T/C,"endpoint: mean survival time, dose: 200.0 mg/kg/injection, schedule: Q01DX009 (oral), vehicle: water",201 % of control
same,T/C,"endpoint: mean survival time, dose: 200.0 mg/kg/injection, schedule: Q08DX009 (ip), vehicle: water",215 % of control and 258 % of control
same,T/C,"endpoint: mean survival time, dose: 300.0 mg/kg/injection, schedule: Q08DX009 (ip), vehicle: water",232 % of control and 217 % of control
same,T/C,"endpoint: mean survival time, dose: 400.0 mg/kg/injection, schedule: Q01DX009 (oral), vehicle: saline",193 % of control
same,T/C,"endpoint: mean survival time, dose: 400.0 mg/kg/injection, schedule: Q01DX009 (oral), vehicle: water",223 % of control
same,T/C,"endpoint: mean survival time, dose: 400.0 mg/kg/injection, schedule: Q08DX009 (ip), vehicle: water",285 % of control
same,T/C,"endpoint: median survival time, dose: 65.0 mg/kg/injection, schedule: Q01DX009 (ip), vehicle: water",167 % of control
same,T/C,"endpoint: median survival time, dose: 100.0 mg/kg/injection, schedule: Q01DX009 (ip), vehicle: water",196 % of control
same,T/C,"endpoint: median survival time, dose: 108.0 mg/kg/injection, schedule: Q01DX009 (ip), vehicle: water",176 % of control
same,T/C,"endpoint: median survival time, dose: 200.0 mg/kg/injection, schedule: Q01DX009 (ip), vehicle: water",223 % of control
same,T/C,"endpoint: median survival time, dose: 400.0 mg/kg/injection, schedule: Q01DX009 (ip), vehicle: water",354 % of control
CC[n+]1ccc(Nc2ccc(NC(=O)c3ccc(Nc4cc[n+](CC)c5ccc(N)cc45)cc3)cc2)cc1,T/C,"endpoint: mean survival time, dose: 1.0 mg/kg/injection, schedule: Q01DX009 (ip), vehicle: water",100 % of control
same,T/C,"endpoint: mean survival time, dose: 2.0 mg/kg/injection, schedule: Q01DX009 (ip), vehicle: water",102 % of control
same,T/C,"endpoint: mean survival time, dose: 4.0 mg/kg/injection, schedule: Q01DX009 (ip), vehicle: water",111 % of control
same,T/C,"endpoint: mean survival time, dose: 8.0 mg/kg/injection, schedule: Q01DX009 (ip), vehicle: water",97 % of control
Nc1nc2n[nH]nc2c(=O)[nH]1,T/C,"endpoint: mean survival time, dose: 89.0 mg/kg/injection, schedule: Q01DX015 (ip), vehicle: water",170 % of control
same,T/C,"endpoint: mean survival time, dose: 117.0 mg/kg/injection, schedule: Q01DX001 (ip), vehicle: carboxymethylcellulose (CMC)",108 % of control
same,T/C,"endpoint: mean survival time, dose: 179.0 mg/kg/injection, schedule: Q01DX001 (ip), vehicle: carboxymethylcellulose (CMC)",107 % of control
same,T/C,"endpoint: mean survival time, dose: 267.0 mg/kg/injection, schedule: Q01DX001 (ip), vehicle: carboxymethylcellulose (CMC)",105 % of control
S=C=NCCc1ccccc1,T/C,"endpoint: mean survival time, dose: 12.5 mg/kg/injection, schedule: Q01DX009 (ip), vehicle: saline with Tween-80",343 % of control
same,T/C,"endpoint: mean survival time, dose: 25.0 mg/kg/injection, schedule: Q01DX009 (ip), vehicle: saline with Tween-80",93 % of control
same,T/C,"endpoint: mean survival time, dose: 50.0 mg/kg/injection, schedule: Q01DX009 (ip), vehicle: saline with Tween-80",95 % of control
